Columns and labels:
[1] = tested on: UCP1; experiment: UCP1 gene expression by qRT-PCR in hASC cells; format: cell-based, human; conditions: 8 μM Naringenin, 30 μM Nicotinamide Riboside or the combination, 6 days
Experimental: (§1) Human adipose derived stem cells (hASC, LaCell, L.L.C., New Orleans, La.) from two different female overweight (BMI=26) donors were plated at a density of 10000 cells/cm^2 on 96-well plates and 24-well plates in preadipocyte medium (HyClone DMEM/F12 1:1, 10% fetal bovine serum (FBS), 1% Antibiotic/Antimycotic (Penicillin/Streptomycin/amphotericin)) at 37° C. in 5% CO2. […]
(§2) hASC cells were grown in a 96-well plate and treated as indicated. […] Gene expression was assessed by quantitative real-time polymerase chain reaction (qRT-PCR) using StepOnePlus™ PCR system (Thermo Fisher Scientific) and TaqMan Gene expression assays for UCP1 (Invitrogen, assay ID # Hs01084772_m1), Glut 4 (Invitrogen, assay ID # Hs00168966_m1), CPT1b (Invitrogen, assay ID # Hs0046298_s1), PRDM16 (Invitrogen, assay ID # Hs00223161_m1), AdipoQ (Invitrogen, assay ID # HS00605917_m1), ChREBP (Invitrogen, assay ID # HS00975714_m1), ATGL (Invitrogen, assay ID # Hs00982042), and RPL13A (Invitrogen, assay ID #Hs04194366_g1) as endogenous control.
(§3) Results were combined and calculated as fold changes of Control and represented as mean±SEM.

[2] = tested on: Sirt1; experiment: Western blot of Sirt1 in hASC cells; format: cell-based, human; conditions: 8 μM Naringenin, 30 μM Nicotinamide Riboside or the combination, 6 days
Experimental: (§4) Human adipose derived stem cells (hASC, LaCell, L.L.C., New Orleans, La.) from two different female overweight (BMI=26) donors were plated at a density of 10000 cells/cm^2 on 96-well plates and 24-well plates in preadipocyte medium (HyClone DMEM/F12 1:1, 10% fetal bovine serum (FBS), 1% Antibiotic/Antimycotic (Penicillin/Streptomycin/amphotericin)) at 37° C. in 5% CO2. One day after reaching confluence, preadipocytes were induced to differentiate with a differentiation medium consisting of 70% Gibco DMEM (high glucose 4.5 g/L), 30% HyClone DMEM/F12 1:1 (3 g/L glucose), 3% FBS, 1% Antibiotic/Antimycotic, 1 μM Dexamethasone, 33 μM Biotin, 100 nM Insulin, 20 μM Pantothenate, 5 μM Rosiglitazone, 500 μM IBMX. […]
(§5) The Phospho-AMPKα (Thr172)-, AMPK- and Sirt1—antibody was obtained from Cell Signaling (Danvers, Mass.). hASC cells were grown on 24-well plates and treated as indicated. Proteins were extracted by using standard protocols and measured by BCA kit (Thermo Scientific). […] Visualization and chemiluminescent detection was conducted using BioRad ChemiDoc instrumentation and software (Bio-Rad Laboratories, Hercules, Calif.) and band intensity was assessed using Image Lab 4.0 (Bio-Rad Laboratories, Hercules, Calif.), with correction for background. […]

[3] = tested on: AdipoQ; experiment: AdipoQ gene expression by qRT-PCR in hASC cells; format: cell-based, human; conditions: 8 μM Naringenin, 30 μM Nicotinamide Riboside or the combination, 6 days
Experimental: as §1, §2, §3

[4] = tested on: intracellular NAD+; conditions: human and animal data (background); cited from earlier work
[5] = tested on: ChREBP; experiment: ChREBP gene expression by qRT-PCR in hASC cells; format: cell-based, human; conditions: 8 μM Naringenin, 30 μM Nicotinamide Riboside or the combination, 6 days
Experimental: as §1, §2, §3

[6] = tested on: CPT1b; experiment: CPT1b gene expression by qRT-PCR in hASC cells; format: cell-based, human; conditions: 8 μM Naringenin, 30 μM Nicotinamide Riboside or the combination, 6 days
Experimental: as §1, §2, §3

[7] = tested on: p-AMPK; experiment: Western blot of p-AMPK in hASC cells; format: cell-based, human; conditions: 8 μM Naringenin, 30 μM Nicotinamide Riboside or the combination, 6 days
Experimental: as §4, §5

[8] = tested on: Glut4; experiment: Glut4 gene expression by qRT-PCR in hASC cells; format: cell-based, human; conditions: 8 μM Naringenin, 30 μM Nicotinamide Riboside or the combination, 6 days
Experimental: as §1, §2, §3

[9] = tested on: PRDM16; experiment: PRDM16 gene expression by qRT-PCR in hASC cells; format: cell-based, human; conditions: 8 μM Naringenin, 30 μM Nicotinamide Riboside or the combination, 6 days
Experimental: as §1, §2, §3

[10] = tested on: ATGL; experiment: ATGL gene expression by qRT-PCR in hASC cells; format: cell-based, human; conditions: 8 μM Naringenin, 30 μM Nicotinamide Riboside or the combination, 6 days
Experimental: as §1, §2
Results were combined and calculated as fold changes of Control and represented as mean±SEM. […]

[11] = tested on: hASC cells; experiment: Fatty acid oxidation (Seahorse) oxygen consumption; format: cell-based, human; conditions: Seahorse XF 24; palmitate 200 μM; 8 μM Naringenin or combination with 30 μM NR
Experimental: as §4, with “IBMX. Preadipocytes were maintained in this differentiation medium for 4 to 5 days and subsequently cultured in maintenance medium (70% Gibco DMEM high glucose, 30% HyClone DMEM/F12 1:1, 3% FBS, 1% Antibiotic/Antimycotic, 1 μM Dexamethasone, 33 μM Biotin, 100 nM Insulin, 20 μM Pantothenate) (=day 0 for experiments).” for “IBMX.”
The palmitate-stimulated oxygen consumption rate was measured with the XF 24 analyzer (Seahorse Bioscience, Billerica, Mass., USA) Cells were seeded and differentiated as described above. […] Data for each sample were normalized to the pre-palmitate injection baseline for that sample and expressed as % change from that baseline. […] All data are expressed as mean±SEM. […]

SMILES | UCP1 expression, fold changes of Control [1] | Sirt1 protein expression [2] | AdipoQ expression, fold changes of Control [3] | increase in NAD+ resulting from administration [4] [%] | ChREBP expression, fold changes of Control [5] | CPT1b expression, fold changes of Control [6] [fold] | p-AMPK protein expression [7] | Glut4 expression, fold changes of Control [8] | PRDM16 expression, fold changes of Control [9] | ATGL expression, fold changes of Control [10] | increase in both basal and palmitate-induced oxygen consumption (fatty acid oxidation) [11]
NC(=O)c1ccc[n+]([C@@H]2O[C@H](CO)[C@@H](O)[C@H]2O)c1 [NR, Nicotinamide Riboside] | no independent effect | no significant effect | no significant effect | ~40 | two-fold | ~2.4 | no significant effect | no independent effect | significantly upregulated | – | –
NC(=O)c1ccc[n+]([C@@H]2O[C@H](COP(=O)([O-])O)[C@@H](O)[C@H]2O)c1 [NMN, Nicotinamide mononucleotide] | – | – | – | ~40 | – | – | – | – | – | – | –
O=C1C[C@@H](c2ccc(O)cc2)Oc2cc(O)cc(O)c21 [naringenin, Naringenin] | ~12 fold | significantly increased | modestly but significantly increased | – | two-fold | ~2.4 | significantly increased | two-fold | significantly upregulated | two-fold | 30-40%
